In test [1] the target is T1, 5-hydroxytryptamine receptor 2A (Rattus norvegicus, UniProt P14842). Briefly: Displacement of [3H]ketanserin from 5HT2A receptor in rat brain membrane. The format is cell membranes.
Test [2] has as its target T1, 5-hydroxytryptamine receptor 2A. The test can be described thus: Displacement of [3H]ketanserin from rat 5HT2A receptor expressed in mouse NIH3T3 cells. Format: cell-based. Background: In a radioligand displacement assay an active substance lowers the binding of a labelled ligand.
The nature of test [3]: Displacement of [3H]ketanserin from 5HT2A receptor in rabbit cerebral cortex membrane. Format: cell membranes, Oryctolagus cuniculus.

The structures appear in SMILES notation. pKi: −log10 of the molar value.

T1 sequence (P14842 whole entry): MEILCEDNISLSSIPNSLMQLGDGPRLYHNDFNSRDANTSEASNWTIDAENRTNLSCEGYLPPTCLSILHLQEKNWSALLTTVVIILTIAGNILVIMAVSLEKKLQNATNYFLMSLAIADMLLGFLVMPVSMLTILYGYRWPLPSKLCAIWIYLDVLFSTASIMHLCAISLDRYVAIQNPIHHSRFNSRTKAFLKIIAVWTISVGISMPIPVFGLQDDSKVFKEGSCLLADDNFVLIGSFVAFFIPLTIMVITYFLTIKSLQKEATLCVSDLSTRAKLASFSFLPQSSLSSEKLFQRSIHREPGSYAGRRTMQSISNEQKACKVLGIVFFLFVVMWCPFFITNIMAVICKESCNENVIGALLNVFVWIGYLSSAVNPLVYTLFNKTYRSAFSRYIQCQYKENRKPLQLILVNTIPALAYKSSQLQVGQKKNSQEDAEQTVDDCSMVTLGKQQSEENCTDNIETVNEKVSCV

With `C=C1C(=O)O[C@@H]2C3O[C@]3(C)CC/C=C(\C)CC[C@@H]12` (some centres undefined), the pKi in test [1] was 3.60; in test [2], 4.00; in test [3], 3.64.
In turn, `CN1C[C@@H](NS(=O)(=O)N(C)C)C[C@@H]2c3cccc4c3c(cn4C)C[C@H]21` [MESULERGINE] had a pKi in test [3] of 8.08.

Usually pKi stands for the Ki on a negative log10 scale, so that one unit is a factor of ten.

For the origin of these results see ChEMBL document CHEMBL1145714, “Activity of Parthenolide at 5HT2A receptors” (J Nat Prod, 1997).
